Assay results published in publication PMC9213739, “Substrates and Loaded Iron Ions Relative Position Influence the Catalytic Characteristics of the Metalloenzymes Angelica archangelica Flavone Synthase I and Camellia sinensis Flavonol Synthase” (Frontiers in Pharmacology, 2022).

What was measured:
CaFLS [1] = biological target: T1, CaFLS (Camellia sinensis, UniProt A0A3G1RNB1); assay: UPLC-MS product formation, Lineweaver-Burk; type: biochemical; details: Tris-HCl pH 7.5, 23 °C
T1 construct: gene FLS; synthetic gene in pET-28a(+) (NcoI/XhoI), expressed in E. coli BL21(DE3); 331 residues; mutants carry fragments of AnFNS I
Excerpt: (§1) UPLC-MS product formation, Lineweaver-Burk on CaFLS

CaFLS [2] = biological target: T1, CaFLS; assay: UPLC-MS product formation, Lineweaver-Burk; type: biochemical; details: tamarixetin formation (main product); Tris-HCl pH 7.5, 23 °C
Excerpt: as §1

T1 sequence (A0A3G1RNB1 entry or part of it): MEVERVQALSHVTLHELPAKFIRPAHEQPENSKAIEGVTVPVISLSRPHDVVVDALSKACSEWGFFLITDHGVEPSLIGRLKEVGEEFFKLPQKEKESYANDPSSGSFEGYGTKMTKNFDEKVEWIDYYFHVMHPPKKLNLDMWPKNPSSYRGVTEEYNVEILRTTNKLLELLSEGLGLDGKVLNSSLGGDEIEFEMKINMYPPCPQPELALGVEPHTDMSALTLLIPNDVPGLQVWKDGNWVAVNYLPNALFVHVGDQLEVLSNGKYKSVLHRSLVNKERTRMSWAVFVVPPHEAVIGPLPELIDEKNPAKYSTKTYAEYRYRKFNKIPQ

Km (CaFLS [1]; diosmetin formation (main product)): 65.4 µM | Km (CaFLS [1]; tamarixetin formation (main product)): 66.4 µM | Km (CaFLS [2]): 68.5 µM
Structure (SMILES): COc1ccc([C@@H]2CC(=O)c3c(O)cc(O)cc3O2)cc1O [hesperetin]
